# Measurements reported in patent publication US12642794B2, “Dose regimens for use of LY3154207 in the treatment of dopaminergic CNS disorders” (Eli Lilly and Company, priority 2018, dated 2026).
# “Also recorded” adds a separate entry of the source. Where two headings read alike, the source gives them in different places.
# How the values were obtained:
# Assay type in all cases: in vivo, human
# [1] = HBEC Part B pharmacokinetics, participants with PD; details: for Cmax / AUC(0-t) / Tmax: human, oral, 75 mg; for AUC(0-t): read-out: AUC(0-24); for Tmax: read-out: tmax, median
# Description: (§1) In this randomized, double-blind, placebo-controlled, multiple ascending dose, parallel-group study, HBEC, healthy subjects (Part A) and participants with PD (Part B) received once-daily doses of LY3154207 (15, 30, 75, or 150 mg in Part A and up to 75 mg in Part B) or placebo for 14 days, as illustrated in FIG. 3.
# (§2) Study outcomes included 24-hour ambulatory blood pressure monitoring (ABPM), treatment-emergent adverse events (TEAEs), and PK assessments in both healthy subjects and participants with PD, as well as Movement Disorder Society-United Parkinson's Disease Rating Scale (MDS-UPDRS) assessments to evaluate the impact of LY3154207 on motor function in participants with PD. The objective was to explore the safety, tolerability, and pharmacokinetics (PK) of multiple oral daily dosing of LY3154207 in healthy subjects (Part A) and in participants with PD (Part B).
# [2] = HBEA plasma pharmacokinetics after single doses
# From the text: HBEA is a single ascending dose study of a D1 receptor positive allosteric modulator LY3154207 in healthy volunteers. Study HBEA aims to determine the safety, tolerability, and peripheral and central pharmacokinetics (PK) of single ascending doses of LY3154207 in healthy subjects. Study HBEB aims to evaluate the effect of single-dose LY3154207 on sleep latency in sleep-deprived healthy male subjects as measured by a multiple sleep latency test (MSLT). HBEA was a Phase 1, 2-part, randomized, double-blind, placebo-controlled study in healthy males or females. Part A has a 3-period crossover design with 2 alternating, single-dose escalating cohorts, and subjects were randomized to LY3154207 (n=6) or placebo (n=3) in each cohort in each dosing period. Part B has a single-period, single-dose, 2-cohort design with cerebrospinal fluid (CSF) sampling, and subjects were randomized to LY3154207 (n=8) or placebo (n=4) in each cohort.
# This is a phase 1, SAD, crossover design of LY3154207 in healthy subjects conducted in 2 alternating cohorts with dose escalation. Subjects are dosed at 25 mg, 75 mg, 100 mg, 150 mg and 200 mg or placebo. Safety parameters assessed include adverse events (AEs), safety laboratories, vital signs, ambulatory blood pressure monitoring (ABPM) and electrocardiogram (ECG). Subjects provide blood samples after dosing to measure plasma concentrations of LY3154207 for assessment of PK.
# HBEA Part B is a study of Cerebrospinal fluid (CSF) and plasma pharmacokinetic (PK) profile following a single dose of LY3154207 in healthy volunteers. The objective of the study is to determine the CSF and plasma PK profile of LY3154207 in a single dose study m healthy volunteers. This study consisted of 2 cohorts in a single-dose, single-period, placebo-controlled, randomized, double-blind, parallel-group study. Subjects were randomized to 25 mg and 75 mg and underwent serial blood and CSF sampling at 2 hours pre-dose and 24 hours post-dose to measure concentrations of LY3154207. Twenty-four subjects enrolled and all completed the study. […] Concentrations of LY3154207 in CSF were detectable up to 8 h after a dose of 25 mg and up to 24 hours after a dose of 75 mg. At each dose about 1% of the total LY3154207 exposure in plasma was available in CSF. At 25 mg and 75 mg, central penetration of LY3154207 was confirmed by measurement of LY3154207 in CSF supporting its use according to the dosing regimens of the present invention in dopaminergic CNS disorders.
# participants with PD = experiment: HBEC Part B multiple dose study: TEAEs, vital signs, tolerability
# Description: FIG. 3: Design of the study HBEC, a multiple ascending dose study of LY3154207, a randomized, double-blind, placebo-controlled, multiple ascending dose, parallel-group study, of healthy subjects (Part A) and participants with PD (Part B) who received once-daily doses of LY3154207 (15, 30, 75, or 150 mg in Part A and up to 75 mg in Part B) or placebo for 14 days. aEach ascending dose cohort commenced only after review of the safety data to at least Day 7 from the previous cohort. bParticipants with PD in Cohort 6 received titrated doses to determine the effect of this dosing schedule (i.e., Days 1-3:15 mg: Days 4-6:30 mg; and Days 7-14:75 mg) on cardiovascular effects. Note: All cohorts were dosed for 14 days. CRU=clinical research unit: LY=LY3154207; PBO=placebo: PD=Parkinson's disease: R=randomized.
# as §1, §2
# [3] = in vivo, participants with PD, Day 14, LY 75 mg (N = 8), geometric mean
# [4] = in vivo, participants with PD, Day 14, LY 75 mg Titration (N = 8), geometric mean
# [5] = participants with PD, LY 75 mg (N = 8), geometric mean
# [6] = participants with PD receiving LY3154207
# [7] = participants with PD, LY 75 mg Titration (Days 1-3: 15 mg; Days 4-6: 30 mg; Days 7-14: 75 mg) (N = 8)
# [8] = participants with PD, LY 75 mg once daily for 14 days (N = 9)
smiles,measurement,setting,value
C[C@H]1c2cccc(CCC(C)(C)O)c2C[C@H](CO)N1C(=O)Cc1c(Cl)cccc1Cl [LY3154207],increase in AUC (0-24) in participants with PD versus healthy subjects,[1]; Day 14 after 75 mg,42%
same,increase in Cmax in participants with PD versus healthy subjects,[1]; Day 14 after 75 mg,25%
same,Cmax,[1]; [3],335 ng/mL
same,AUC(0-t),[1]; [3],3050 ng·h/mL
same,Tmax,"[1]; in vivo, participants with PD, Day 14, LY 75 mg (N = 8)",2 h
same,Cmax,[1]; [4],400 ng/mL
same,AUC(0-t),[1]; [4],3680 ng·h/mL
same,Tmax,"[1]; in vivo, participants with PD, Day 14, LY 75 mg Titration (N = 8)",2.5 h
same,exposure in participants with PD compared with healthy subjects,[1]; in vivo,slight increase
same,accumulation upon repeated dosing,[1]; participants with PD,minimal accumulation
same,CLss/F,"[1]; participants with PD, Day 14, LY 75 mg (N = 8), geometric mean",24.6 L/h
same,CLss/F,"[1]; participants with PD, Day 14, LY 75 mg Titration (N = 8), geometric mean",20.4 L/h
same,RAAUC(0-24) (accumulation ratio Day 14:Day 1),[1]; [5],1.06
same,RACmax (accumulation ratio Day 14:Day 1),[1]; [5],1.05
same,apparent clearance (CL/F),[2]; across doses,19 to 25 L/h
same,Tmax,"[2]; both sexes, human, plasma, single doses, read-out: median tmax",2 to 3 h
same,half-life,"[2]; both sexes, human, plasma, single doses, read-out: terminal half-life (t1/2) (converted)",~12 h
same,renal elimination,[2]; in vivo,negligible renal elimination
same,linearity of PK,"[2]; plasma, 25-200 mg",linear PK profile; also recorded: linear plasma PK
same,dose proportionality of Cmax and AUC,"[2]; plasma, 25 to 200 mg",proportional with dose; also recorded: increased in proportion to LY3154207 dose
same,administered dose excreted in urine,[2]; single doses,0.02%
same,severe or serious TEAEs,participants with PD; participants with PD,no severe or serious TEAEs
same,"headache, treatment-related AE",participants with PD; [6],1 n
same,"hypoesthesia, treatment-related AE",participants with PD; [6],1 n
same,"upper abdominal pain, treatment-related AE",participants with PD; [6],1 n
same,"visual hallucination, treatment-related AE",participants with PD; [6],1 n
same,Number of TEAEs,participants with PD; [7],7
same,"Number of TEAEs, Mild",participants with PD; [7],6
same,"Number of TEAEs, Moderate",participants with PD; [7],1
same,"Subjects with ≥1 TEAE, (%)",participants with PD; [7],(62.5) %
same,Number of TEAEs,participants with PD; [8],14
same,"Number of TEAEs, Mild",participants with PD; [8],13
same,"Number of TEAEs, Moderate",participants with PD; [8],1
same,"Subjects with ≥1 TEAE, (%)",participants with PD; [8],(66.7) %
same,"course of the initial increase in SBP, DBP, and pulse rate","participants with PD; participants with PD, repeated dosing",accommodation effect was less notable
same,tolerability of multiple once-daily doses,participants with PD; up to 75 mg in participants with PD,well tolerated
